Where “and” joins values, the source holds several entries; their conditions need not be identical. Equal values may be shown once.
Assay: xn = mol fraction of the nth substance listed

CC12CCC(CC1)C(C)(C)O2 + Cc1cccc(O)c1
viscosity [mPa·s], 101 kPa
Conditions	x1 = 0.065	x1 = 0.1352	x1 = 0.2114	x1 = 0.2943	x1 = 0.3848	x1 = 0.4841	x1 = 0.5934	x1 = 0.7145	x1 = 0.8492
303.15 K	10.48	10.69	10.47	9.802	8.746	7.564	6.28	4.91	3.559
308.15 K	8.331	8.539	8.426	7.994	7.155	6.222	5.16	4.043	3.002
313.15 K	6.756	6.947	6.878	6.474	5.892	5.161	4.295	3.348	2.505

C[C@H](N)C(=O)O + O
Conditions	viscosity
298 K, 101 kPa, x1 = 0.0004	0.887 mPa·s
298 K, 101 kPa, x1 = 0.0007	0.8925 mPa·s
298 K, 101 kPa, x1 = 0.001	0.8956 mPa·s
298 K, 101 kPa, x1 = 0.0018	0.9013 mPa·s
298.15 K, 100 kPa, x1 = 0.0004	0.8955 mPa·s
298.15 K, 100 kPa, x1 = 0.0007	0.8979 mPa·s
298.15 K, 100 kPa, x1 = 0.001	0.9003 mPa·s and 0.9029 mPa·s
298.15 K, 101 kPa, x1 = 0.000169	0.9489 mPa·s and 0.9489 mPa·s
298.15 K, 101 kPa, x1 = 0.00045	0.8958 mPa·s
298.15 K, 101 kPa, x1 = 0.0009	0.9013 mPa·s
298.15 K, 101 kPa, x1 = 0.00135	0.9069 mPa·s
298.15 K, 101 kPa, x1 = 0.00178	0.9677 mPa·s and 0.9677 mPa·s
298.15 K, 101 kPa, x1 = 0.0018	0.9126 mPa·s
298.15 K, 101 kPa, x1 = 0.002695	0.9242 mPa·s
298.15 K, 101 kPa, x1 = 0.003596	0.9759 mPa·s and 0.9759 mPa·s
298.15 K, 101 kPa, x1 = 0.005338	0.9871 mPa·s and 0.9871 mPa·s
298.15 K, 101 kPa, x1 = 0.01087	1.039 mPa·s and 1.039 mPa·s
298.15 K, 101 kPa, x1 = 0.0124	1.045 mPa·s and 1.045 mPa·s
298.15 K, 101 kPa, x1 = 0.01417	1.054 mPa·s and 1.054 mPa·s
303.15 K, 101 kPa, x1 = 0.00045	0.8023 mPa·s
303.15 K, 101 kPa, x1 = 0.0009	0.8076 mPa·s
303.15 K, 101 kPa, x1 = 0.00135	0.8128 mPa·s
303.15 K, 101 kPa, x1 = 0.0018	0.8182 mPa·s
303.15 K, 101 kPa, x1 = 0.001802	0.8176 mPa·s
303.15 K, 101 kPa, x1 = 0.002245	0.8235 mPa·s
303.15 K, 101 kPa, x1 = 0.002695	0.829 mPa·s
303.15 K, 101 kPa, x1 = 0.01069	0.9202 mPa·s
303.15 K, 101 kPa, x1 = 0.01245	0.9412 mPa·s
308.15 K, 101 kPa, x1 = 0.000169	0.7568 mPa·s and 0.7568 mPa·s
308.15 K, 101 kPa, x1 = 0.00045	0.7238 mPa·s
308.15 K, 101 kPa, x1 = 0.000844	0.7678 mPa·s and 0.7678 mPa·s
308.15 K, 101 kPa, x1 = 0.0009	0.7288 mPa·s
308.15 K, 101 kPa, x1 = 0.00135	0.7338 mPa·s
308.15 K, 101 kPa, x1 = 0.00178	0.7755 mPa·s and 0.7755 mPa·s
308.15 K, 101 kPa, x1 = 0.002245	0.7439 mPa·s
308.15 K, 101 kPa, x1 = 0.002695	0.749 mPa·s
308.15 K, 101 kPa, x1 = 0.003596	0.799 mPa·s and 0.799 mPa·s
308.15 K, 101 kPa, x1 = 0.005338	0.8044 mPa·s and 0.8044 mPa·s
308.15 K, 101 kPa, x1 = 0.007149	0.8133 mPa·s and 0.8133 mPa·s
308.15 K, 101 kPa, x1 = 0.008823	0.8201 mPa·s and 0.8201 mPa·s
308.15 K, 101 kPa, x1 = 0.01087	0.8366 mPa·s and 0.8366 mPa·s
308.15 K, 101 kPa, x1 = 0.0124	0.8431 mPa·s and 0.8431 mPa·s
308.15 K, 101 kPa, x1 = 0.01417	0.8612 mPa·s and 0.8612 mPa·s
313.15 K, 101 kPa, x1 = 0.00045	0.6571 mPa·s
313.15 K, 101 kPa, x1 = 0.0009	0.6618 mPa·s
313.15 K, 101 kPa, x1 = 0.00135	0.6666 mPa·s
313.15 K, 101 kPa, x1 = 0.0018	0.6714 mPa·s
313.15 K, 101 kPa, x1 = 0.002245	0.6761 mPa·s
313.15 K, 101 kPa, x1 = 0.002695	0.6809 mPa·s
313.15 K, 101 kPa, x1 = 0.005374	0.6994 mPa·s
313.15 K, 101 kPa, x1 = 0.008931	0.7316 mPa·s
313.15 K, 101 kPa, x1 = 0.01245	0.7659 mPa·s
318.15 K, 101 kPa, x1 = 0.000169	0.6345 mPa·s
318.15 K, 101 kPa, x1 = 0.00045	0.6014 mPa·s
318.15 K, 101 kPa, x1 = 0.000844	0.6454 mPa·s and 0.6454 mPa·s
318.15 K, 101 kPa, x1 = 0.0009	0.6059 mPa·s
318.15 K, 101 kPa, x1 = 0.00135	0.6104 mPa·s
318.15 K, 101 kPa, x1 = 0.00178	0.6589 mPa·s and 0.6589 mPa·s
318.15 K, 101 kPa, x1 = 0.0018	0.6149 mPa·s
318.15 K, 101 kPa, x1 = 0.002245	0.6195 mPa·s
318.15 K, 101 kPa, x1 = 0.002695	0.624 mPa·s
318.15 K, 101 kPa, x1 = 0.003596	0.6733 mPa·s and 0.6733 mPa·s
318.15 K, 101 kPa, x1 = 0.005338	0.6747 mPa·s and 0.6747 mPa·s
318.15 K, 101 kPa, x1 = 0.007149	0.6774 mPa·s and 0.6774 mPa·s
318.15 K, 101 kPa, x1 = 0.008823	0.699 mPa·s and 0.699 mPa·s
318.15 K, 101 kPa, x1 = 0.01087	0.7009 mPa·s and 0.7009 mPa·s
318.15 K, 101 kPa, x1 = 0.0124	0.7145 mPa·s and 0.7145 mPa·s
318.15 K, 101 kPa, x1 = 0.01417	0.7345 mPa·s and 0.7345 mPa·s
323.15 K, 101 kPa, x1 = 0.005374	0.5833 mPa·s
323.15 K, 101 kPa, x1 = 0.008931	0.6095 mPa·s
323.15 K, 101 kPa, x1 = 0.01069	0.6229 mPa·s
323.15 K, 101 kPa, x1 = 0.01245	0.6364 mPa·s

[Cs+].[I-] + O
310.15 K, 101 kPa
Conditions	viscosity [mPa·s]
x1 = 0.000182	0.6958
x1 = 0.000913	0.6971
x1 = 0.001829	0.6934
x1 = 0.002695	0.6844
x1 = 0.003679	0.6676
x1 = 0.005197	0.6281
x1 = 0.005988	0.6009

C1C[C@@H]2[C@H]3CC[C@H](C3)[C@@H]2C1 + CCCCCCCC
viscosity [mPa·s], 100 kPa
Conditions	x1 = 0.1007	x1 = 0.2005	x1 = 0.2991	x1 = 0.4	x1 = 0.5001	x1 = 0.5986	x1 = 0.6988	x1 = 0.8019	x1 = 0.9005
293.15 K	0.616	0.697	0.806	0.956	1.085	1.282	1.537	1.896	2.342
298.15 K	0.582	0.655	0.756	0.892	1.007	1.187	1.415	1.735	2.13
303.15 K	0.551	0.618	0.711	0.83	0.94	1.102	1.311	1.597	1.95
308.15 K	0.523	0.585	0.67	0.78	0.879	1.027	1.215	1.475	1.793
313.15 K	0.499	0.555	0.634	0.733	0.825	0.96	1.13	1.367	1.654

Nc1cccc(Cl)c1 + CCCCCCCO
viscosity [mPa·s], 101 kPa
Conditions	x1 = 0.1306	x1 = 0.2526	x1 = 0.3669	x1 = 0.4741	x1 = 0.5749	x1 = 0.6698	x1 = 0.7593	x1 = 0.844	x1 = 0.9241
303.15 K	4.923	4.794	4.684	4.589	4.509	4.442	4.385	4.336	4.292
308.15 K	4.229	4.143	4.072	4.014	3.966	3.927	3.895	3.869	3.853
313.15 K	3.647	3.585	3.538	3.501	3.473	3.451	3.438	3.433	3.432
318.15 K	3.346	3.269	3.207	3.156	3.114	3.079	3.051	3.032	3.023

Nc1cccc(Cl)c1 + CCCCOCCO
303.15 K, 101 kPa
Conditions	viscosity [mPa·s]
x1 = 0.1347	2.958
x1 = 0.2158	3.022
x1 = 0.3353	3.099
x1 = 0.4394	3.15
x1 = 0.5555	3.192
x1 = 0.6554	3.214
x1 = 0.7157	3.226
x1 = 0.8263	3.239
x1 = 0.912	3.242

CCC(=O)O + C1COCO1
298.15 K, 101 kPa
Conditions	viscosity [mPa·s]
x2 = 0.1	1.018
x2 = 0.2	1.003
x2 = 0.3	0.9794
x2 = 0.4	0.9457
x2 = 0.5	0.9011
x2 = 0.6	0.8454
x2 = 0.7	0.788
x2 = 0.8	0.7223
x2 = 0.9	0.6544

From the CheMixHub viscosity set
